Source: paper PMC13430218 (Clinical Cancer Research, 2026)

Test: Plasma pharmacokinetics of rogocekib, LC-MS/MS, noncompartmental
Format: in vivo, human
Protocol: For other patients in the expansion cohort, peripheral blood samples were collected before and after the dose at 2 and 6 hours on day 1 of cycle 1, and before dose of day 1 in cycles 2 and 4.
Descriptive statistics such as medians, standard deviations, and ranges were calculated. The Kaplan–Meier method was utilized for OS and PFS analysis. PK/PD parameters were assessed using a noncompartmental approach. Exploratory biomarkers were assessed through descriptive statistics.

COc1ncnn2ccc(-c3cnc4nc(C)n(Cc5nnc([C@@H](C)F)o5)c4c3)c12 [rogocekib, Rogocekib]
Tmax, median (min, max) (Cohort A 10 mg twice weekly, n = 1, cycle 1 day 1, oral): 2 (2, 2) hours
AUC0–24 hours, geometric mean (%CV) (Cohort A 140 mg twice weekly, n = 6, cycle 1 day 1, oral): 5,823.618 (22.2) hours·ng/mL
